Results reported in patent publication US9364479B2, “Use of a receptor-type kinase modulator for treating polycystic kidney disease” (SYMPHONY EVOLUTION, INC., priority 2010, dated 2016).

What was measured:
Neurokinin, NK3 (NKB) = target: T1, Neurokinin, NK3 (NKB) (Homo sapiens, UniProt P29371); test: NovaScreen assay; type: binding; conditions: read-out: Inhibition, 10 μM XL-647
T1 construct: NovaScreen

FGFR1 = target: T2, FGFR1 (Homo sapiens, UniProt P11362); test: AlphaScreen kinase assay; type: biochemical
T2 construct: cytoplasmic; GST-His6 (N); purchased ProQinase
Procedure: (§1) An AlphaScreen tyrosine kinase assay was used to measure ErbB2 and Flt-4 activity. Donor beads coated with streptavidin and acceptor beads coated with PY100 anti-phosphotyrosine antibody (Perkin-Elmer) were used. Biotinylated poly(Glu,Tyr) 4:1 was used as the substrate. Substrate phosphorylation was measured by luminescence following donor-acceptor bead addition followed by complex formation. Test compound, 3 μmol/L ATP, 3 nmol/L biotinylated poly(Glu,Tyr) 4:1, and 1 nmol/L ErbB2 (residues Q679-V1255 of human ErbB2, Proqinase) or Flt-4 (residues D725-R1298 of human Flt-4, Proqinase) were combined in a volume of 20 μL Assay Buffer (20 mM TrisHCl, pH 7.5, 10 mM MgCl2, 3 mM MnCl2, 1 mM DTT, 0.01% Triton) in a 384-well white, medium-binding microtiter plate (Greiner). Reaction mixtures were incubated for 1 h at room temperature. Reactions were quenched by addition of 10 μL of 15 to 30 μg/mL AlphaScreen bead suspension containing 75 mmol/L HEPES (pH 7.4), 300 mmol/L NaCl, 120 mmol/L EDTA, 0.3% bovine serum albumin, and 0.03% Tween 20. After 2 to 16 h of incubation at room temperature, plates were read using an AlphaQuest reader (Perkin-Elmer).
(§2) Further screening was performed using the biochemical assay methods of Example 2. Additional description of the components and concentrations are summarized in Table 8, Table 9, and Table 10, below.

Fyn = target: T3, Fyn (Homo sapiens, UniProt P06241); test: AlphaScreen kinase assay; type: biochemical
T3 construct: His6 (N); purchased Upstate Biotechnology
Procedure: as §1, §2

[1] = In vitro kinase inhibition screen; type: biochemical
Procedure: as §2

AMPK = test: In vitro kinase inhibition screen; type: biochemical
Procedure: as §2

Blk = Blk (Homo sapiens, UniProt P51451); test: In vitro kinase inhibition screen; type: biochemical
Procedure: as §2

CDK1 = CDK1 (Homo sapiens, UniProt P06493); test: In vitro kinase inhibition screen; type: biochemical
Procedure: as §2

CDK2 = CDK2 (Homo sapiens, UniProt P24941); test: In vitro kinase inhibition screen; type: biochemical
Procedure: as §2

CDK3 = CDK3 (Homo sapiens, UniProt Q00526); test: In vitro kinase inhibition screen; type: biochemical
Procedure: as §2

CK2 = CK2 (Homo sapiens, UniProt P68400); test: In vitro kinase inhibition screen; type: biochemical
Procedure: as §2

CamKII = test: In vitro kinase inhibition screen; type: biochemical
Procedure: as §2

CamKIV = CamKIV (Homo sapiens, UniProt Q16566); test: In vitro kinase inhibition screen; type: biochemical
Procedure: as §2

Clk1 = Clk1 (Homo sapiens, UniProt P49759); test: In vitro kinase inhibition screen; type: biochemical
Procedure: as §2

Clk2 = Clk2 (Homo sapiens, UniProt P49760); test: In vitro kinase inhibition screen; type: biochemical
Procedure: as §2

Fes = Fes (Homo sapiens, UniProt P07332); test: In vitro kinase inhibition screen; type: biochemical
Procedure: as §2

IKKα = IKKα (Homo sapiens, UniProt O15111); test: In vitro kinase inhibition screen; type: biochemical
Procedure: as §2

IKKβ = IKKβ (Homo sapiens, UniProt O14920); test: In vitro kinase inhibition screen; type: biochemical
Procedure: as §2

JNK1α = JNK1α (Homo sapiens, UniProt P45983); test: In vitro kinase inhibition screen; type: biochemical
Procedure: as §2

JNK3α = JNK3α (Homo sapiens, UniProt P53779); test: In vitro kinase inhibition screen; type: biochemical
Procedure: as §2

Lyn = Lyn (Homo sapiens, UniProt P07948); test: In vitro kinase inhibition screen; type: biochemical
Procedure: as §2

MAP4K5 = MAP4K5 (Homo sapiens, UniProt Q9Y4K4); test: In vitro kinase inhibition screen; type: biochemical
Procedure: as §2

MAPK2 = MAPK2 (Homo sapiens, UniProt P28482); test: In vitro kinase inhibition screen; type: biochemical
Procedure: as §2

MAPKAP2 = MAPKAP2 (Homo sapiens, UniProt P49137); test: In vitro kinase inhibition screen; type: biochemical
Procedure: as §2

MEK1 = MEK1 (Homo sapiens, UniProt Q02750); test: In vitro kinase inhibition screen; type: biochemical
Procedure: as §2

MKK4 = MKK4 (Homo sapiens, UniProt P45985); test: In vitro kinase inhibition screen; type: biochemical
Procedure: as §2

MKK6 = MKK6 (Homo sapiens, UniProt P52564); test: In vitro kinase inhibition screen; type: biochemical
Procedure: as §2

PDGFRβ = PDGFRβ (Homo sapiens, UniProt P09619); test: In vitro kinase inhibition screen; type: biochemical
Procedure: as §2

PKBα = PKBα (Homo sapiens, UniProt P31749); test: In vitro kinase inhibition screen; type: biochemical
Procedure: as §2

PKC-γ = PKC-γ (Homo sapiens, UniProt P05129); test: In vitro kinase inhibition screen; type: biochemical
Procedure: as §2

PKC-ξ = target: T4, PKC-ξ; test: In vitro kinase inhibition screen; type: biochemical
T4 construct: PKC-eta; Human, PanVera
Procedure: as §2

PKCα = PKCα (Homo sapiens, UniProt P17252); test: In vitro kinase inhibition screen; type: biochemical
Procedure: as §2

ROCK II = ROCK II (Homo sapiens, UniProt O75116); test: In vitro kinase inhibition screen; type: biochemical
Procedure: as §2

Rsk3 = Rsk3 (Homo sapiens, UniProt Q15349); test: In vitro kinase inhibition screen; type: biochemical
Procedure: as §2

SAPK3 = SAPK3 (Homo sapiens, UniProt P53778); test: In vitro kinase inhibition screen; type: biochemical
Procedure: as §2

SAPK4 = SAPK4 (Homo sapiens, UniProt O15264); test: In vitro kinase inhibition screen; type: biochemical
Procedure: as §2

Sequence of CDK3 (Q00526 whole entry, species assumed): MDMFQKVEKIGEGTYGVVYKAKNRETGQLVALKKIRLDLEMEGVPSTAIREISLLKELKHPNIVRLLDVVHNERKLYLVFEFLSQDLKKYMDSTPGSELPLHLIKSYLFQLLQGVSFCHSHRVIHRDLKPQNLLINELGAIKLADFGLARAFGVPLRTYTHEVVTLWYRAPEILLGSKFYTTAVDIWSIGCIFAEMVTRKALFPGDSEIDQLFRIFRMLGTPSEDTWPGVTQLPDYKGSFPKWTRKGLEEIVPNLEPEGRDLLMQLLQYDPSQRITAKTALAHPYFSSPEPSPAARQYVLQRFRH
Sequence of CDK3 (P24864 whole entry partner, species assumed): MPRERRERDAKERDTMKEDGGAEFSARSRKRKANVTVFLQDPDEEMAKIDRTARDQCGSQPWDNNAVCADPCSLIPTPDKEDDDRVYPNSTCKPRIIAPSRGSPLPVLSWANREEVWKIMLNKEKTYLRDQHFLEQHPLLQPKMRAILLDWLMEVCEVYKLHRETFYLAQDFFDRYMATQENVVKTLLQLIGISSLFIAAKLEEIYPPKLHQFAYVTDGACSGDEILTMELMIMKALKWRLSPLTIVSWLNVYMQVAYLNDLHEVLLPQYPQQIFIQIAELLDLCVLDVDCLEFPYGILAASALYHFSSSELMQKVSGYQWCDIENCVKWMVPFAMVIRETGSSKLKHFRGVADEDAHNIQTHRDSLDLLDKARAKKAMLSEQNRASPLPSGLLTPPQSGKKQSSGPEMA
Sequence of CDK1 (P06493 whole entry, species assumed): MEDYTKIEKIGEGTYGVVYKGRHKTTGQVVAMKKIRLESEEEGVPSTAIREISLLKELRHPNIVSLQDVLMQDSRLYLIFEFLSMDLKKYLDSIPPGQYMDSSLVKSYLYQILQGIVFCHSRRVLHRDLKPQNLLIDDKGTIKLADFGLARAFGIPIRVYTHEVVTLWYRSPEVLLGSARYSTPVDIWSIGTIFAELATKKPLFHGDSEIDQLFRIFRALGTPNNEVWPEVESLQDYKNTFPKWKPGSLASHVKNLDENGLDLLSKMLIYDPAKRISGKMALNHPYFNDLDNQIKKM
Sequence of CDK1 (P14635 whole entry partner, species assumed): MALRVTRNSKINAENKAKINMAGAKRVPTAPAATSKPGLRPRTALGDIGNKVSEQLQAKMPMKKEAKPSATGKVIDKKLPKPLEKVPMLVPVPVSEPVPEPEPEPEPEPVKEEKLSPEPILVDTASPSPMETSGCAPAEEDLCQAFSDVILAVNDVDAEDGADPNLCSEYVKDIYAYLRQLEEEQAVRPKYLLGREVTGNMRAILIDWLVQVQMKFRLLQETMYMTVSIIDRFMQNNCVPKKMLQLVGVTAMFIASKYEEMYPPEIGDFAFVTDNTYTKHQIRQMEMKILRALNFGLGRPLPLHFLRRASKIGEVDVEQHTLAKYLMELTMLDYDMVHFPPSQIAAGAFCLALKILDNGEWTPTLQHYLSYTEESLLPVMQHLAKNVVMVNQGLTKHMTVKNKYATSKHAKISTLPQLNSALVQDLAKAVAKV
Sequence of IKKβ (O14920 whole entry, species assumed): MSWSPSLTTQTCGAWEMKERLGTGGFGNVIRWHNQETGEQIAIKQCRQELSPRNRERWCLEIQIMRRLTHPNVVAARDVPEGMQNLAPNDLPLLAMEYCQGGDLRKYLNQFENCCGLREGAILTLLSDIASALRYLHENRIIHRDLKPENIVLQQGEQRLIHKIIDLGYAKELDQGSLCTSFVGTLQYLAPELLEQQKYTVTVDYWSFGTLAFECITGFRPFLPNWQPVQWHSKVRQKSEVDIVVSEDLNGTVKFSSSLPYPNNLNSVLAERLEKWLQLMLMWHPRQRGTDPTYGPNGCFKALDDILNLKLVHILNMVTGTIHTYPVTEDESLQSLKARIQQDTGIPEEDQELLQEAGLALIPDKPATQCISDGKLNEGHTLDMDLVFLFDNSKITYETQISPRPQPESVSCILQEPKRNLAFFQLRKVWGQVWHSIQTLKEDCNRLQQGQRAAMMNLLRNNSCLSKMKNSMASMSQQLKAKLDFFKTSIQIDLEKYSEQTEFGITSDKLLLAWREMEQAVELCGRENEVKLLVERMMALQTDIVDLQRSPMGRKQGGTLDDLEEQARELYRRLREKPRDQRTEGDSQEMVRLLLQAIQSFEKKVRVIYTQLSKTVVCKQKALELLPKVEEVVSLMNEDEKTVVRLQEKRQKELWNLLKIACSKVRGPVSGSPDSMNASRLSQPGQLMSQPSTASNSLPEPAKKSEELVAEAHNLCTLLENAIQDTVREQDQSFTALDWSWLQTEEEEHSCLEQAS
Sequence of JNK1α (P45983 whole entry): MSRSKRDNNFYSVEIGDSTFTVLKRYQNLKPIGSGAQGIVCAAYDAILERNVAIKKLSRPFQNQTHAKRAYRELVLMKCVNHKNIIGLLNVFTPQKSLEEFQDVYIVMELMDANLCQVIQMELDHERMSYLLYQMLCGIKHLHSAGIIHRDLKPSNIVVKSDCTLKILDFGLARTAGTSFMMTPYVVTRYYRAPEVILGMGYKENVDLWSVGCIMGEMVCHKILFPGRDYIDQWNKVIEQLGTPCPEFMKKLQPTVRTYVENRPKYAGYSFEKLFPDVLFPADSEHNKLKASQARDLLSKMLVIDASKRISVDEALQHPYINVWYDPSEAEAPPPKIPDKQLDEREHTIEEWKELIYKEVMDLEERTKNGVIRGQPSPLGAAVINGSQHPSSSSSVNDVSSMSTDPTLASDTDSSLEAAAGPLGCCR
Sequence of Fes (P07332 whole entry, species assumed): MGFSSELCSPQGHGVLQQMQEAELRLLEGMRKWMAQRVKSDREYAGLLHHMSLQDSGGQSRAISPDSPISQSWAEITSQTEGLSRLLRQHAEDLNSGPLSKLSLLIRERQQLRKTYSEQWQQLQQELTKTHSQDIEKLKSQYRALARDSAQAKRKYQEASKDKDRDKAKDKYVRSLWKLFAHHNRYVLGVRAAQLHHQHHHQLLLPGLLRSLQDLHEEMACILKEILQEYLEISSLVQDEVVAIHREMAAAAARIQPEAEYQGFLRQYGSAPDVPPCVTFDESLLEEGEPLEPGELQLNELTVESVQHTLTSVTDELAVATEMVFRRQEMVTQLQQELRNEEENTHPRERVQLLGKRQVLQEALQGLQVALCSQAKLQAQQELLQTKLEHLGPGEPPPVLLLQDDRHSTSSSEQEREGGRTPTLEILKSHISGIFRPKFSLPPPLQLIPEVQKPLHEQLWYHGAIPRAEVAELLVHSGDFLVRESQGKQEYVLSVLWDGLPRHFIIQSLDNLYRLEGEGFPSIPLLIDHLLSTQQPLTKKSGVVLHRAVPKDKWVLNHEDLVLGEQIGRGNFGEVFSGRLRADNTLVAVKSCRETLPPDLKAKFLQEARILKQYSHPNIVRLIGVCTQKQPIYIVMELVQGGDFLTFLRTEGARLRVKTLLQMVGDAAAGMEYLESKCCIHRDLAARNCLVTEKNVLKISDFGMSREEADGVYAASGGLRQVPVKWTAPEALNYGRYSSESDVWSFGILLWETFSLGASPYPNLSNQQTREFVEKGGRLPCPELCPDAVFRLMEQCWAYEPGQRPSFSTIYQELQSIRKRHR
Sequence of PKBα (P31749 whole entry, species assumed): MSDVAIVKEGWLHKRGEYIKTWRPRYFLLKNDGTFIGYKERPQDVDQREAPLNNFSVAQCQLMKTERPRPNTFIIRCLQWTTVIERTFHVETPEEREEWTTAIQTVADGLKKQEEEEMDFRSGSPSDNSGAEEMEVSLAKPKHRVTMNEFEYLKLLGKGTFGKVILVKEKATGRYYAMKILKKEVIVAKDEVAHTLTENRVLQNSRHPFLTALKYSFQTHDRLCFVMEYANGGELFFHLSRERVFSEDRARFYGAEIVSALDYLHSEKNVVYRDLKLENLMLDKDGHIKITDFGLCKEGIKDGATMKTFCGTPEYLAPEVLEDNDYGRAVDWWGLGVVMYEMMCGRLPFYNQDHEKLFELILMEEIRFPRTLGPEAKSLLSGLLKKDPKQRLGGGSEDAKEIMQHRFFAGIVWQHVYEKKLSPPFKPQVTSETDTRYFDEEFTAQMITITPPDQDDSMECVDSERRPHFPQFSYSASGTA
Sequence of CK2 (P68400 whole entry): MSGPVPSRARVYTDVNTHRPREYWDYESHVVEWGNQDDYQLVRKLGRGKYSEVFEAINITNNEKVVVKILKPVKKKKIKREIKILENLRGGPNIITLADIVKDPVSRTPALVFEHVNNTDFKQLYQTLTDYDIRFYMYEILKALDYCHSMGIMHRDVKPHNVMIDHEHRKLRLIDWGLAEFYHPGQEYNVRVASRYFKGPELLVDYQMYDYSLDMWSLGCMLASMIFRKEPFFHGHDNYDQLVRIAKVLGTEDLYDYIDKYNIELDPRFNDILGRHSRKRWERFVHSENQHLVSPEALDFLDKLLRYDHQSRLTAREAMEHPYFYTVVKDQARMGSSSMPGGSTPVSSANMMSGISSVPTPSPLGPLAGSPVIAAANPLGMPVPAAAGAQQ
Sequence of CK2 (P67870 whole entry partner): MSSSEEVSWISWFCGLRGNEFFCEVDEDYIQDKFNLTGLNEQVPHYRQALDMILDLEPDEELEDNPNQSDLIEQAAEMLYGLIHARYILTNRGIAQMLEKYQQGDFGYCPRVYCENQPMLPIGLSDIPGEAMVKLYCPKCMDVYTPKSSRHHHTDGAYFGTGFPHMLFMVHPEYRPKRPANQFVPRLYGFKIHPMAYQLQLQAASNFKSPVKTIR
Sequence of MAPKAP2 (P49137 whole entry): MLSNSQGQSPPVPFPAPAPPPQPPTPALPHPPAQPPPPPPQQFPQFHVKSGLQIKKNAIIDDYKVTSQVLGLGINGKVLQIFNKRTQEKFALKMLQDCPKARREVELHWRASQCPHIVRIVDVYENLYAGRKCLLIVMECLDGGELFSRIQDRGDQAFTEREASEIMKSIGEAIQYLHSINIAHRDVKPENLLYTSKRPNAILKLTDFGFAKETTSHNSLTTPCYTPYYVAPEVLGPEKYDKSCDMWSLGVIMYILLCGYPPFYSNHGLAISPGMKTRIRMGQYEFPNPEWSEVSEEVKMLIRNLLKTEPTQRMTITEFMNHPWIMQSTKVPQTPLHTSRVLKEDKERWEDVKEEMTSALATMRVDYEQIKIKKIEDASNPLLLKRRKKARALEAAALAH

With `COc1cc2c(Nc3ccc(Cl)c(Cl)c3F)ncnc2cc1OC[C@@H]1C[C@@H]2CN(C)C[C@@H]2C1` [XL-647, N-(3,4-dichloro-2-fluorophenyl)-7-({[(3aR,5r,6aS)-2-methyloctahydrocyclopenta[c]pyrrol-5-yl]methyl}oxy)-6-(methyloxy)quinazolin-4-amine] the inhibition at 10 µM (Neurokinin, NK3 (NKB)) was 20%, the IC50 (FGFR1) was 0.855 ± 0.0963 µM and the IC50 (Fyn) was 0.041 ± 0.0081 µM. For the same molecule, the IC50 [1] was > 1 µM, the IC50 (AMPK) was > 1 µM and the IC50 (Blk) was 0.015 µM. For the same molecule, the IC50 (CDK1) was > 1 µM, the IC50 (CDK2) was > 1 µM and the IC50 (CDK3) was > 1 µM. For the same molecule, the IC50 (CK2) was > 1 µM, the IC50 (CamKII) was > 1 µM and the IC50 (CamKIV) was > 1 µM. The IC50 (Clk1) was > 10 µM, the IC50 (Clk2) was > 10 µM and the IC50 (Fes) was 0.474 µM. For the same molecule, the IC50 (IKKα) was > 1 µM, the IC50 (IKKβ) was > 1 µM and the IC50 (JNK1α) was > 1 µM. For the same molecule, the IC50 (JNK3α) was > 1 µM, the IC50 (Lyn) was 0.002 µM and the IC50 (MAP4K5) was > 1 µM. The IC50 (MAPK2) was > 1 µM, the IC50 (MAPKAP2) was > 10 µM and the IC50 (MEK1) was > 1 µM. The IC50 (MKK4) was > 1 µM, the IC50 (MKK6) was > 1 µM and the IC50 (PDGFRβ) was 0.346 ± 0.037 µM. The IC50 (PKBα) was > 10 µM, the IC50 (PKC-γ) was > 10 µM and the IC50 (PKC-ξ) was > 10 µM. The IC50 (PKCα) was > 10 µM, the IC50 (ROCK II) was > 1 µM and the IC50 (Rsk3) was > 1 µM. The IC50 (SAPK3) was > 1 µM and the IC50 (SAPK4) was > 1 µM.
